In data set [1] the target is T1, Aromatase (Homo sapiens, UniProt P11511).
T1 sequence (P11511 whole entry): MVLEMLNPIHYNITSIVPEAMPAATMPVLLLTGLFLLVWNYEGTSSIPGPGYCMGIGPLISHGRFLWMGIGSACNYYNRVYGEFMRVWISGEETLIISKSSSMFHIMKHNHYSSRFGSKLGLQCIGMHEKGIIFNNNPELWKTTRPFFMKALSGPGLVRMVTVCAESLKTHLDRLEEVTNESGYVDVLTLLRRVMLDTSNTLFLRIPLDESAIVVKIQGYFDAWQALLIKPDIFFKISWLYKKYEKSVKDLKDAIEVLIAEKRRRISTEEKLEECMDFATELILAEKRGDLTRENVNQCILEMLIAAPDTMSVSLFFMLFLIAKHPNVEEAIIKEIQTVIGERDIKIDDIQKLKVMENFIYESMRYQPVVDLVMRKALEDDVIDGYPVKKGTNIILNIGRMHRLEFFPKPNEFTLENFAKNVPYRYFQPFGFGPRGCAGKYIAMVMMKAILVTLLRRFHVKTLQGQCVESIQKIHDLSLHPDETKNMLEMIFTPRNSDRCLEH
Briefly: Dithiothreitol ([…]) reactivation of human placental aromatase following 1.0 uM inactivation for 10 minutes. As to conditions: read-out: Activity remaning.

Data set [2] addresses T1, Aromatase. Briefly: Dithiothreitol ([…]) reactivation of human placental aromatase following 1.0 uM inactivation for 5 minutes. As to conditions: read-out: Activity remaning.
For data set [3], the target named is T1, Aromatase. Put plainly: Binding affinity constant for formation of reversible enzyme-ligand complex with human placental aromatase (PL1). As to conditions: read-out: Ks.
Data set [4] addresses T1, Aromatase. Put plainly: Maximum absorbance for formation of reversible-enzyme-ligand complexes with human placental aromatase (PL1).
For data set [5], the target named is T1, Aromatase. Briefly: Catalytic constant (Kcat) for reversible enzyme-ligand complex formation with human placental aromatase (PL2).
In data set [6] the target is T1, Aromatase. Briefly: Binding affinity(KI) for formation of reversible enzyme-ligand complex with human placental aromatase (PL2).
Data set [7] deals with T1, Aromatase. Briefly: Binding affinity for formation of reversible enzyme-ligand complexes with human placental aromatase (PL2).

Regarding `OC(CS)C(O)CS` (stereo not drawn) [DL-DITHIOTHREITOL], the activity at 1 µM at Aromatase [1] came to 84%; at Aromatase [2] it was 97%.

As to `C[C@]12C[C@@H](S)C(=O)C=C1CCC1C2CC[C@]2(C)C(=O)CCC12.OC(CS)C(O)CS` (stereo not given in full), the activity at 1 µM at Aromatase [1] amounted to 74%.

For `C[C@]12CCC3C(CCC4=CC(=O)CC[C@@]43S)C1CC[C@@H]2O` (stereo not given in full), at Aromatase [3], the Kd came out at 785 nM. Further, the Activity at Aromatase [4] is given as 0.167 Amax nM-1. This compound returned a k cat on Aromatase [5] of 0.004. Also, the Ki (usually the dissociation constant of the complex between target and ligand, obtained from inhibition or displacement) on Aromatase [6] worked out at 100 nM.

In turn, `C[C@]12CCC3C(CCC4=CC(=O)CC[C@@]43CS)C1CCC2=O` (stereo not given in full) came in with a Ki on Aromatase [7] of 47 nM. The Activity on Aromatase [4] is recorded as 0.179 Amax nM-1. Moreover, the k cat on Aromatase [5] stood at 0.0025. The activity at 1 µM on Aromatase [2] was determined as 60%.

For the compound `C[C@]12CCC(=O)C(O)=C1CC[C@@H]1[C@@H]2CC[C@]2(C)C(=O)CC[C@@H]12` [FORMESTANE], the Kd on Aromatase [3] is 324 nM. Also, the Activity on Aromatase [4] is given as 0.162 Amax nM-1. In addition, the k cat on Aromatase [5] is reported as 0.008 *10e-3. Affinity at Aromatase [6] was put at a Ki of 542 nM. For the same compound, on Aromatase [2], the activity at 1 µM was determined as 43%.

As for `C[C@]12CCC3C(CCC4=CC(=O)CC[C@@]43S)C1CCC2=O.OC(CS)C(O)CS` (stereo not given in full), the activity at 1 µM at Aromatase [2] was determined as 48%.

As for `CC12CCC3C(CC=C4CC(=O)CCC43CO)C1CCC2=O` (stereo not given), the Kd at Aromatase [3] came out at 368 nM. Besides, the Activity at Aromatase [4] is given as 0.125 Amax nM-1.

With `C#CC[C@]12CCC(=O)C=C1CCC1C2CC[C@]2(C)C(=O)CCC12.OC(CS)C(O)CS` (stereo not given in full), the activity at 1 µM at Aromatase [1] worked out at 63%.

On to `C[C@]12C[C@@H](S)C(=O)C=C1CCC1C2CC[C@]2(C)C(=O)CCC12` (stereo not given in full), for which the Kd at Aromatase [3] was found to be 602 nM. Besides, the Activity at Aromatase [4] is given as 0.169 Amax nM-1. This compound had a k cat on Aromatase [5] of 0.002. In addition, the activity at 1 µM at Aromatase [1] was 75%. The Ki on Aromatase [6] worked out at 3100 nM.

As to `C[C@]12CCC3C(CCC4=CC(=O)CC[C@@]43CS)C1CCC2=O.OC(CS)C(O)CS` (stereo not given in full), the activity at 1 µM on Aromatase [2] was determined as 59%.

In the case of `C[C@]12CCC3C(CCC4=CC(=O)CC[C@@]43S)C1CCC2=O` (stereo not given in full), the Kd on Aromatase [3] worked out at 144 nM. Besides, at Aromatase [4], the Activity is 0.187 Amax nM-1. The k cat on Aromatase [5] amounted to 0.0043. The compound further had a Ki at Aromatase [6] of 28 nM. In addition, the activity at 1 µM on Aromatase [2] came out at 50%.

On to `C#CC[C@]12CCC(=O)C=C1CC[C@@H]1[C@@H]2CC[C@]2(C)C(=O)CC[C@@H]12` [PLOMESTANE], for which, on Aromatase [3], the Kd was 213 nM. On Aromatase [4], the Activity is recorded as 0.191 Amax nM-1. The k cat on Aromatase [5] is listed as 0.0007. The activity at 1 µM on Aromatase [1] came out at 65%. This compound also yielded a Ki at Aromatase [6] of 6.2 nM.

Turning to `C[C@]12CC[C@H]3[C@@H](CCC4=CC(=O)CC[C@@]43C)[C@@H]1CC[C@@H]2O` [TESTOSTERONE], at Aromatase [4], the Activity is given as 0.166 Amax nM-1.

For `C[C@]12CCC(=O)C=C1CC[C@@H]1[C@@H]2CC[C@]2(C)C(=O)CC[C@@H]12` [ANDROSTENEDIONE], the Kd at Aromatase [3] was 105 nM. Further, the Activity on Aromatase [4] is listed as 0.177 Amax nM-1.

Take `C[C@]12CCC(=O)C(O)=C1CCC1C2CC[C@]2(C)C(=O)CCC12.OC(CS)C(O)CS` (stereo not given in full): the activity at 1 µM on Aromatase [2] amounted to 41%.

The values are drawn from ChEMBL document CHEMBL1124325, “Interactions of thiol-containing androgens with human placental aromatase” (J Med Chem, 1989).
